TGI and GI50 data for 21 molecules are collected here from PubChem BioAssay (NCI).

Among the test systems are CCRF-CEM leukemia; DLD-1 colon; DMS 114 small cell lung; DMS 273 small cell lung; HCC-2998 colon; HOP-18 NSCLC; KM20L2 colon; M19-MEL melanoma; OVCAR-3 ovarian; SNB-78 CNS; XF 498 CNS; DU-145 prostate.
What all share (experiment): DTP human tumour cell line panel, 48 h

Several values for one entry are separate records, joined by “and”; a condition that tells them apart may be missing. Equal entries are not always repeated.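 48-hour exposure; five concentrations; linearly interpolated endpoints. GI50 marks 50% less growth. TGI is the concentration that stops growth completely.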

`CN1C(=O)c2ccccc2NC(=O)c2cnn(C)c21`: the TGI with CCRF-CEM leukemia, with DLD-1 colon, with DMS 114 small cell lung, in the assay on DMS 273 small cell lung, in the assay on HCC-2998 colon and in the assay on HOP-18 NSCLC was more than 100 µM throughout. Moreover, the TGI in the assay with KM20L2 colon, in the assay on M19-MEL melanoma, in the assay on OVCAR-3 ovarian, in the assay on SNB-78 CNS and in the assay on XF 498 CNS was more than 100 µM in each case.
With `COCO[C@@H]1C[C@H]2C(O)Nc3ccccc3C(=O)N2C1` (stereo not given in full), the TGI in the assay with CCRF-CEM leukemia, in the assay with DU-145 prostate, with HCC-2998 colon and with OVCAR-3 ovarian was more than 100 µM throughout.
On to `CN(C)c1ccc(/C=C2/SC(=S)NC2=O)cc1`, for which the TGI in the assay on CCRF-CEM leukemia, with DU-145 prostate, in the assay on HCC-2998 colon and with OVCAR-3 ovarian was more than 100 µM throughout.
Turning to `N#C[S-].[Nd+3].c1cnc2c(c1)ccc1cccnc12.c1cnc2c(c1)ccc1cccnc12.c1cnc2c(c1)ccc1cccnc12`, the TGI with CCRF-CEM leukemia turned out to be 3.85 µM; with DMS 114 small cell lung it was 4.67 µM; in the assay with HCC-2998 colon it was 20 µM; with HOP-18 NSCLC, 7.53 µM; in the assay on KM20L2 colon, 15.3 µM; in the assay on M19-MEL melanoma, 3.63 µM. Moreover, the TGI was found to be 16.1 µM with OVCAR-3 ovarian and 9.61 µM in the assay on XF 498 CNS. Moreover, the GI50 in the assay on DMS 114 small cell lung is 1.59 µM; with HOP-18 NSCLC, 0.787 µM; in the assay with KM20L2 colon, 1.11 µM; in the assay with M19-MEL melanoma it was 0.566 µM; in the assay on XF 498 CNS, 4 µM.
As to `C=CCc1cc(-c2cc(CC=C)c(O)c(CN(CCCl)CCCl)c2)cc(CN(CCCl)CCCl)c1O`, the total growth inhibition concentration (TGI) with CCRF-CEM leukemia is more than 100 µM; in the assay on DLD-1 colon, 36.2 µM; with DMS 273 small cell lung it was 30.3 µM; with DU-145 prostate, 30.8 µM; in the assay on HCC-2998 colon it was 29.2 µM; with HOP-18 NSCLC, 67 µM. Also, the TGI with KM20L2 colon was 35.4 µM; in the assay on M19-MEL melanoma, 34.7 µM; with OVCAR-3 ovarian it was 36.2 µM; in the assay on SNB-78 CNS it was more than 100 µM.
Consider `CC1=NN(c2cccc(Cl)c2)C2(SCC(=O)N2c2nc3ccccc3s2)/C1=C\c1ccc(Cl)cc1` (stereo not given), for which the TGI with CCRF-CEM leukemia is 3.31 µM; with DU-145 prostate, 39.2 µM; in the assay with HCC-2998 colon, 27.5 µM; with OVCAR-3 ovarian, 37.2 µM.
On to `O=C1C=CC2(O[C@H](c3ccccc3)[C@@H](c3ccccc3)O2)C(SC(=O)c2ccccc2)C1` (stereo not given in full), for which the TGI was more than 100 µM in the assay with DU-145 prostate and 4.41 µM in the assay with OVCAR-3 ovarian.
For `O=c1[nH]c(Nc2ccc(F)c(Cl)c2)nc2nc[nH]c12`, the concentration for total growth inhibition (TGI) with CCRF-CEM leukemia, in the assay on DU-145 prostate, in the assay with HCC-2998 colon and with OVCAR-3 ovarian was more than 100 µM throughout.
Turning to `CC1=C(C)C(=O)O[C@@H]([C@](C)(O)[C@]2(O)CC[C@@]3(O)[C@@H]4C[C@H]5O[C@]56[C@@H](O)C=CC(=O)[C@]6(C)[C@H]4CC[C@]23C)C1`, the 50% growth inhibitory concentration (GI50) with DLD-1 colon was 0.666 µM and 0.162 µM; in the assay with DMS 273 small cell lung, 1.5 µM and 0.252 µM; with KM20L2 colon it was 0.335 µM and 0.125 µM; in the assay with OVCAR-3 ovarian it was 0.136 µM and 0.0594 µM; in the assay with XF 498 CNS it was 0.082 µM. For the same molecule, the TGI is 3.36 µM and 3.89 µM in the assay with DLD-1 colon; 0.588 µM and 0.567 µM in the assay on DMS 114 small cell lung; 5.32 µM and 3.13 µM with DMS 273 small cell lung; 5.76 µM in the assay with HCC-2998 colon; 2.44 µM in the assay on HOP-18 NSCLC; 4 µM and 1.35 µM in the assay on KM20L2 colon. Moreover, the total growth inhibition concentration (TGI) in the assay with OVCAR-3 ovarian was 1.64 µM and 0.359 µM; in the assay with XF 498 CNS, 0.819 µM and 0.8 µM.
On to `Cc1ccc(CC(=O)Nc2ccc(NC(=O)/C=C/NC(=O)/C=C/c3ccc(-c4ccccc4)cc3)cc2C(=O)c2ccccc2)cc1`, for which the TGI in the assay with CCRF-CEM leukemia is 8.84 µM; with DU-145 prostate, more than 100 µM; in the assay on HCC-2998 colon it was 1.61 µM; in the assay on OVCAR-3 ovarian, 4.32 µM.
Turning to `Cc1cc(NC(=S)Nc2ccccc2)c(NC(=S)Nc2ccccc2)cc1C`, the TGI is more than 74.9 µM with CCRF-CEM leukemia; more than 100 µM with DLD-1 colon; more than 100 µM in the assay with DMS 273 small cell lung; more than 57.6 µM with HCC-2998 colon; more than 100 µM with HOP-18 NSCLC; more than 92 µM in the assay on KM20L2 colon. Moreover, the concentration for total growth inhibition (TGI) with M19-MEL melanoma is more than 100 µM; with OVCAR-3 ovarian, 50.9 µM; with XF 498 CNS, 84 µM.
For the molecule `Nc1ccccc1CCCC(=O)O`, the concentration for total growth inhibition (TGI) with CCRF-CEM leukemia, with DU-145 prostate, with HCC-2998 colon and in the assay with OVCAR-3 ovarian was more than 100 µM in each case.
`COCc1nc2c(OC)cc(-c3nc4nc(N5CCN(C)CC5)ccc4[nH]3)c(OC)c2[nH]1`: the TGI was 75.9 µM with CCRF-CEM leukemia, more than 100 µM in the assay on DU-145 prostate, more than 100 µM in the assay with HCC-2998 colon and 83 µM with OVCAR-3 ovarian.
Regarding `COc1cc2c(cc1OCCCOc1cc(-c3ccc(F)cc3)nc(C)n1)N=C[C@@H]1CCCN1C2=O`, the TGI in the assay on CCRF-CEM leukemia turned out to be 53.9 µM; in the assay with DU-145 prostate it was 36.1 µM; with OVCAR-3 ovarian it was 29.4 µM.
For the molecule `CCC(=O)Nc1ccc(N=Cc2cccc(Oc3ccccc3)c2)cc1`, the TGI in the assay with CCRF-CEM leukemia was 63.9 µM; in the assay with DU-145 prostate, more than 100 µM; in the assay on OVCAR-3 ovarian it was more than 100 µM.
Take `Cn1c2ccccc2c2c(-c3ccccc3)[n+]3ccccc3nc21`: the values for the total growth inhibition concentration (TGI) in the assay with CCRF-CEM leukemia, in the assay on DU-145 prostate and with OVCAR-3 ovarian were 99.8 µM, more than 100 µM and 57.7 µM, respectively.
In the case of `COC(=O)CCC(=O)CC(=O)C1=NS(=O)(=O)c2nc(S(N)(=O)=O)c(Cl)cc2N1`, the concentration for total growth inhibition (TGI) in the assay with CCRF-CEM leukemia, in the assay on DLD-1 colon, in the assay with DMS 114 small cell lung, with DMS 273 small cell lung, with HCC-2998 colon and in the assay on HOP-18 NSCLC was more than 100 µM in each case. The TGI in the assay on KM20L2 colon, with M19-MEL melanoma, with OVCAR-3 ovarian and in the assay on XF 498 CNS was more than 100 µM in each case.
On to `CC(C)=CC1C(COC(=O)c2cc3c(cc2Cl)OCO3)C1(C)C` (stereo not given), for which the values for the concentration for total growth inhibition (TGI) in the assay with CCRF-CEM leukemia, with DU-145 prostate and with OVCAR-3 ovarian were more than 100 µM, more than 100 µM and 65.1 µM, respectively.
As for `COc1cc(O)cc(/C=C/c2ccc(O)cc2)c1`, the TGI with DU-145 prostate and in the assay on OVCAR-3 ovarian was more than 100 µM throughout.
Regarding `O=C(O)CNC(=O)CO/N=C1/C(c2c(O)[nH]c3ccccc23)=Nc2ccccc21`, the total growth inhibition concentration (TGI) in the assay on CCRF-CEM leukemia, in the assay with DU-145 prostate, in the assay on HCC-2998 colon and with OVCAR-3 ovarian was more than 100 µM throughout.
Take `CC1C(=O)OC2CC[N+]3(CC(=O)c4ccc(Br)cc4)CC=C(COC(=O)C(C)(O)C1(C)O)C23` (stereo not given): the concentration for total growth inhibition (TGI) in the assay on CCRF-CEM leukemia, with DLD-1 colon, in the assay with DMS 114 small cell lung, in the assay on DMS 273 small cell lung, in the assay with HCC-2998 colon and with HOP-18 NSCLC was more than 375 µM in each case. The TGI with KM20L2 colon was more than 266 µM; with M19-MEL melanoma, more than 375 µM; with OVCAR-3 ovarian, more than 375 µM; with SNB-78 CNS, more than 174 µM; in the assay with XF 498 CNS, more than 375 µM.
